What all share (assay): Minimum inhibitory concentration, microtitre plate doubling dilutions
What all share (format): cell-based

One experiment has as its system Staphylococcus aureus. The settings on record: for MIC versus organism S.a: biocide alone, visual growth after 24 hours at 37° C. The procedure:
(§1) Bacteria were grown to stationary phase (18 h) in nutrient broth (approximately 10^9 organisms per ml). A 0.1% (v/v) inoculum was used to seed fresh medium and 100 μl of this was added to each well of a microtitre plate, except for the first well which contained 200 μl. Using doubling dilutions, the concentration of each antimicrobial was varied in each well along the ordinate axis. The presence or absence of growth was determined by visual inspection after 24 hours incubation at 37° C.

The subject of another experiment is Escherichia coli. The note with it: for MIC versus organism E.c: biocide alone, visual growth after 24 hours at 37° C. As for the experimental part:
as §1

For a further experiment, the system named is Pseudomonas aeruginosa. The note with it: for MIC versus organism Ps.a: biocide alone, visual growth after 24 hours at 37° C. As for the experimental part:
as §1

With `CCCCCCCCCC[N+](C)(C)CCCCCCCCCC.[Cl-]` [Bardac 22.70, Didecyldimethyl ammonium chloride], the MIC (as a rule, the least concentration at which growth counts as inhibited) is 1 µg/mL with Staphylococcus aureus (Staphylococcus aureus, 24 h, read-out: MIC versus organism S.a); 4 µg/mL with Escherichia coli (Escherichia coli, 24 h, read-out: MIC versus organism E.c); 8 µg/mL with Pseudomonas aeruginosa (Pseudomonas aeruginosa, 24 h, read-out: MIC versus organism Ps.a).

Regarding `CCCCCCCCCCCCN(CCCN)CCCN` [Lonzabac 12.30, N-3-aminopropyl-N-dodecylpropane-1-3-diamine], the “MIC versus organism S.a” value against Staphylococcus aureus is recorded as 8 ppm. Besides, in the experiment on Escherichia coli, the “MIC versus organism E.c” value worked out at 16 ppm. In addition, the “MIC versus organism Ps.a” value in the experiment with Pseudomonas aeruginosa turned out to be 32 ppm.

`[Na+].[O-][n+]1ccccc1[S-]` [Sodium Omadine, Na pyrithione]: the “MIC versus organism S.a” value against Staphylococcus aureus is 1 ppm. Besides, in the experiment on Escherichia coli, the “MIC versus organism E.c” value is given as 500 ppm. Further, the “MIC versus organism Ps.a” value with Pseudomonas aeruginosa was determined as 16 ppm.

Regarding “Alkyldimethylbenzylammonium chloride [Barquat 4214]”, the “MIC versus organism S.a” value against Staphylococcus aureus worked out at 2 ppm. The “MIC versus organism E.c” value against Escherichia coli was 8 ppm. In addition, the “MIC versus organism Ps.a” value in the experiment with Pseudomonas aeruginosa was 32 ppm.

Turning to “Benzyl C12-16 alkyl dimethyl chlorides [Barquat DM-80]”, in the experiment on Staphylococcus aureus, the “MIC versus organism S.a” value is listed as 2 ppm. In the experiment on Escherichia coli, the “MIC versus organism E.c” value stood at 12 ppm. Also, in the experiment with Pseudomonas aeruginosa, the “MIC versus organism Ps.a” value was 32 ppm.

“Didecyl dimethyl ammonium carbonate/bicarbonate [Carboquat HE]”: the “MIC versus organism S.a” value against Staphylococcus aureus is 1 ppm. In addition, in the experiment with Escherichia coli, the “MIC versus organism E.c” value is reported as 4 ppm. In addition, the “MIC versus organism Ps.a” value in the experiment on Pseudomonas aeruginosa was 8 ppm.

On to “N,N-Didecyl-N-methyl-poly(oxyethyl)ammonium propionate [Bardap 26]”, for which, in the experiment on Staphylococcus aureus, the “MIC versus organism S.a” value came out at 1 ppm. Further, in the experiment on Escherichia coli, the “MIC versus organism E.c” value is 4 ppm. In the experiment with Pseudomonas aeruginosa, the “MIC versus organism Ps.a” value is 16 ppm.

The record behind these values is US20200305437A1, “SYNERGISTIC ANTIMICROBIAL COMBINATIONS CONTAINING QUATERNARY AMMONIUM BIOCIDE” (LONZA, LLC, priority 2016, published 2020).
